Data taken from US20260200983A1, “USE OF GALR2 AGONISTS TO TREAT GASTROINTESTINAL AND/OR ENDOCRINE DISORDERS” (priority 2022, published 2026).
Non-standard residues stand in square brackets, D forms with d. Residues, ends and D or L forms follow the SMILES beside them. Primed or numbered codes have the meaning given here. No end group written: not given here. PEG2′ = not defined here

Tests used:
hGALR2 = target: T1, hGALR2 (Homo sapiens, UniProt O43603); test: SRE luciferase activity in mGqi-hGALR2-SRE Luc expressing cell lines; format: cell-based; details: read-out: logEC50 (mean ± SEM) (converted)
T1 construct: expressed in transfected cells
T1 sequence (O43603 1-387): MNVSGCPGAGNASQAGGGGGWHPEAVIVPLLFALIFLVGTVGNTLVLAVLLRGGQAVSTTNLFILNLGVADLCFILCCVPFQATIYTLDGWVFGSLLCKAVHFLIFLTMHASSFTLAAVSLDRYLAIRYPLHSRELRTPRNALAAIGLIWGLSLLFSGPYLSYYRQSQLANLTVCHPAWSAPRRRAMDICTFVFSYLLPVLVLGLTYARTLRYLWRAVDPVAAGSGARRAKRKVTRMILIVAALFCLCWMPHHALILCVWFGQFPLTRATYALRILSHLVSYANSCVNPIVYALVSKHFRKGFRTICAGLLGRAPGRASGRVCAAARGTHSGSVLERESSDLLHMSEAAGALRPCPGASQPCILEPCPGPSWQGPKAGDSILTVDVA
Method: FIG. 11 provides a comparison of the in vitro potency of three different GALR2 agonist peptides with certain amino acid substitutions at the 4th amino acid position. Specifically, the GALR2 agonist peptides were as follows: (1) nWTaNAALYLFGPq-NH2 (D-alanine substitution; triangle), (2) PEG2-NWTeNAALYLFGPq-NH2 (D-glutamic acid; filled circle), and (3) PEG2-NWTrNAALYLFGPq-NH2 (D-arginine; open circle). Potency of the GALR2 agonists was assessed by measuring SRE luciferase activity in mGqi-hGALR2-SRE Luc expressing cell lines treated with the peptides.
In addition to solubility (described above in Example 8), the in vitro potency of the three GALR2 agonist peptides described in Example 7 was next assessed. Specifically, mGqi-hGALR2-SRE Luc expressing cell lines were treated with the different peptides and SRE luciferase activity was measured (as a measure of intracellular activity mediated by the GALR2 agonist peptides).

OIC mice = test: Colonic transit time (latency to glass bead expulsion) in opioid-induced constipation (OIC) mouse model; format: in vivo; details: 10 mg/kg intraperitoneally, single administration at day 7, positive control (FIG. 5)
Method: FIG. 4 provides the overall experimental design in assessing the effects of GALR2 agonists described herein in an opioid-induced constipation (OIC) mouse model. The upward arrows (seven total) represent the daily administration of the GALR2 agonist. The GALR2 agonist that was administered to the relevant groups was pegylated. Control animals received either a vehicle control (negative control) or bisacodyl (positive control). Animals that received a single administration (i.e., at day 7) of naloxone methiodide were also used as a positive control. At 10 minutes post last administration, each of the animals received an administration of morphine (3 mg/kg; subcutaneously). […] Colonic transit time was assessed by measuring the latency to glass bead expulsion by the animals.
FIGS. 9A and 9B show the effect of dosing schedule and administration route on GALR2 agonist-mediated regulation of colonic transit time in OIC mice. […] Colonic transit time was assessed by measuring the latency to glass bead expulsion by the animals. […]
To assess whether the GALR2 agonists described herein could be useful in treating opioid-induced constipation, an OIC mouse model was used. […] Then, a glass bead was rectally inserted, and colonic transit time was assessed by measuring the latency to glass bead expulsion by the animals. […]

[1] = target: T2, human galanin receptor type 2 (GALR2) (human, UniProt O43603 1-387); test: cell-based or functional assay
T2 sequence: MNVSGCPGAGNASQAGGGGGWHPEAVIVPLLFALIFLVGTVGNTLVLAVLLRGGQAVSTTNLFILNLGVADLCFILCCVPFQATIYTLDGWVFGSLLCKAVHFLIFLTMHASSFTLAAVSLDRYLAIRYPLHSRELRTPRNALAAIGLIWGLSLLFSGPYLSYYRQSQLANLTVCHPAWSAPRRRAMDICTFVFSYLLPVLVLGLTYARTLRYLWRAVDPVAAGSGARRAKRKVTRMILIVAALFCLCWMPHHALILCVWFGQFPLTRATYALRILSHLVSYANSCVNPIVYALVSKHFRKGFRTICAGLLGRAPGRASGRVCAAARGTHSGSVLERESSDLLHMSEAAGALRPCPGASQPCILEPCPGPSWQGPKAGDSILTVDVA

## CC(C)C[C@H](NC(=O)[C@H](C)NC(=O)[C@H](C)NC(=O)[C@H](CC(N)=O)NC(=O)[C@@H](C)NC(=O)[C@@H](NC(=O)[C@H](Cc1c[nH]c2ccccc12)NC(=O)[C@H](N)CC(N)=O)[C@@H](C)O)C(=O)N[C@@H](Cc1ccc(O)cc1)C(=O)N[C@@H](CC(C)C)C(=O)N[C@@H](Cc1ccccc1)C(=O)NCC(=O)N1CCC[C@H]1C(=O)N[C@H](CCC(N)=O)C(N)=O [D-Alanine (SEQ ID NO: 87), nWTaNAALYLFGPq-NH2] (HELM PEPTIDE1{[dN].W.T.[dA].N.A.A.L.Y.L.F.G.P.[dQ].[am]}$$$$V2.0)
hGALR2
  EC50: 44.7 nM

## C=CC[N+]1(C)CC[C@]23c4c5ccc(O)c4O[C@H]2C(=O)CC[C@@]3(O)[C@H]1C5 (stereo partly drawn) [naloxone methiodide, reference compound]
OIC mice
  colonic transit time: decrease in colonic transit time

B1: PEG2-NWTrNAALYLFGPq-NH2 ([PEG-dR4-dQ14]-GALR2 Agonist, SEQ ID NO: 89) (peptide)
peptide: [PEG2′]NWT[dR]NAALYLFGP[dQ]-NH2
[1]
  EC50 fold change against the D-alanine peptide, SRE luciferase activity: ~3.5 fold
